# Data reported in patent US8614203B2, “Methods for the treatment of a central nervous system injury via a tapered administration protocol” (Emory University, priority 2005, dated 2013).
# Tests used:
# Type in all cases: in vivo, Sprague-Dawley rats
# [1] = tested on: bilateral contusions of the medial prefrontal cortex; assay: Example 1: necrotic cavity, lateral ventricle and striatal area measurements after TBI (Nissl/thionine histology); conditions: 4 mg/kg in peanut oil, 21 days after surgery
# Method: Male Sprague-Dawley rats (300 g) were housed individually in wire cages and kept on a reverse light-dark cycle (0800-2000 h). […] All procedures involving animals conformed to guidelines set forth in the Guide for the Care and Use of Laboratory Animals (U.S. Department of Health and Human Services, Pub no. 85-23, 1985) and were approved by the Emory University Institutional Animal Care and Use Committee.
# Bilateral contusions of the medial prefrontal cortex were created by a pneumatic impactor device as previously described. Briefly, rats were given anesthetized with ketamine/xylazine (90 mg/kg; 10 mg/kg) and placed in a stereotaxic apparatus. A craniectomy (diameter 6 mm) was made over the midline of the prefrontal cortex with its center 1.5 mm AP to bregma. After removal of the bone, the tip of the impactor (diameter 5 mm) was moved to +3.0 mm AP; 1.0 mm ML (from bregma), and checked for adequate clearance. Trauma was produced by pneumatically activating the piston to impact −2.0 mm DV (from dura) at a velocity of 3 m/s with a brain contact time of 0.5 seconds.
# Control animals received injections of vehicle at similar time-points. Animals were coded with regard to surgery and treatment to prevent experimenter bias during behavioral testing and histological examination.
# Twenty-one days after surgery, animals were perfused with 100 ml 0.1 M phosphate-buffered saline (PBS; pH 7.4) followed by 400 ml 4% paraformaldehyde in 0.1 M phosphate buffer (PB; pH 7.4). Following cryoprotection in 30% sucrose, coronal 40-μm-thick sections were cut on a freezing microtome, immediately mounted on gel-coated slides and stained for Nissl with thionine to determine placement and extent of the injury.
# Mean area measurements of lesion size were quantified from sections at 15 rostral-caudal levels spaced 300 μm apart. […] Perimeters of the striatum and the lateral ventricles were also traced and mean areas were quantified from 7 rostral-caudal levels (300 μm apart).
# Experienced individuals who were blind to treatment conditions of the study conducted all histological and behavioral analyses. All data were tested for normality and homoschedasticity before being analyzed by parametric analysis of variance (ANOVA). MWM results were analyzed using separate mixed-factorial (4 groups×5 days) analysis of variance (ANOVA) on each of the two 5-day testing periods (acquisition and retention respectively). Results of the BSN task were analyzed using the mixed-factorial ANOVA (4 groups×2 post-injury trials). […] Pearson r coefficients were calculated to determine whether significant correlations could be detected between histological (e.g., lesion size and cellular density) and behavioral parameters (e.g., acquisition and retention of the MWM task and measures of sensory neglect).
# [2] = tested on: medial frontal cortex injury or sham surgery; assay: Example 3: behavioral testing (anxiety, locomotor, sensory neglect), acute vs tapered withdrawal
# Method: (§1) Male Sprague-Dawley rats received either medial frontal cortex injury or sham surgery. Injections were given 1 and 6 hours post-injury, and every 24 hours for 7 days. Treatment groups (n=8) encompassed injured (I) and sham (S) acute withdrawal (AW), tapered withdrawal (TW) and vehicle (V) treatments. TW injections were progressively halved over the final two treatments. Behavioral testing was conducted post-surgery, mid- and post-withdrawal. Activity boxes were used to investigate vertical movements and exploration: Sensory neglect and anxiety behaviors were also analyzed. Brain harvesting was performed at 8 days or 3 weeks post-injury. Perfused tissue sections were analyzed for lesion volume and immunohistochemical response. Fresh brain tissue was flash frozen in chilled 2-methyl butane, and then homogenized for Western blot analysis.
# [3] = tested on: medial frontal cortex injury; assay: Example 3: lesion reconstruction (lesion volume); conditions: tapered withdrawal, injured (TWI)
# Method: as §1
# [4] = tested on: medial frontal cortex (MFC) injury or sham; assay: Example 4: Digiscan locomotor activity boxes (center time)
# Source text: 60 male Sprague-Dawley rats weighing 290-310 g at the time of injury were used in this experiment. Food and water were provided ad libidum before and after surgery. Animals were handled and weighed daily from their arrival, seven days pre-surgery, to brain extraction three weeks post-surgery. Animals were handled in squads of 12, with n=10 per experimental condition. All animal procedures were approved by the Emory University Animal Care and Use Committee, Protocol #131-2002.
# Isofluorane anesthesia was induced for four minutes and 45 seconds at 5% and maintained at 2.5%. Normal body temperature was maintained with a surgical heating pad placed beneath the sterile dressings. The scalp incision area was shaved and sterilized with iodine and isopropanol. A midline incision was made along the scalp and the fascia cleared to expose the surface of the skull. Medial, lateral, and dorsal stereotaxic coordinates were determined at bregma, and a 5-7 mm diameter bilateral craniotomy was performed mid-sagitally, 3 mm anterior to bregma. […] Sutures were used to close the incision after bleeding ceased. Animals were placed in individual heated, clean recovery cages until they awakened, and were returned to clean individual home cages with accessible moistened food pellets. Sham animals were anesthetized, and an incision was made at the top of the head. The fascia was cleared to expose bregma, then the incision was sutured closed. Sham surgeries were matched to lesion surgeries for all experimental conditions.
# Sham (S) and lesion (L) animals were randomly assigned to one of three treatment groups: vehicle (VS, VL), acute withdrawal (AWS, AWL), and tapered withdrawal (TWS, TWL). […] Tapering was induced as halved dosages over the last two days of treatment. Dilutions for TW treatments were made with HBC stock. All injections were administered intraperitoneally at one hour post-injury, and subcutaneously at six hours post-injury and every 24 hours through the end of the treatment cycle. Five sets of 12 animals each were used, for a total n=10 for each experimental group over the entire experiment. Of these animals, all were used to acquire behavioral data, four samples were used for protein analysis, and six samples were used for histological analysis for each test condition.
# Random order, blinded testing occurred under red light in a quiet environment one day before injury, and one and seven days post-withdrawal. Up to four animals were tested using the Digiscan Activity Monitoring System (AccuScan Instruments, inc. Columbus, Ohio) in each trial, with a total of three trials per test day. Rats were placed in the furthest left corner of the Digiscan Activity Box. At that time, the toggle switch was flipped to ‘on’. At exactly five minutes the computer ceased testing, assuring that all tests were the same length regardless of start time. Files were saved according to date and trial number, and the number of fecal boli recorded. Activity boxes were cleaned with 70% ethanol and dried between trials. Center time was defined by the computer as the amount of time the animal spent exploring the activity box away from the corners.
# All results were expressed as the mean plus or minus the standard error of the mean. Statistical significance was set at p<0.05 for two-tailed tests, and data were analyzed using one-way analysis of variance (ANOVA) followed by LSD post hoc tests. […]
smiles,measurement,setting,value
"CC(=O)[C@H]1CC[C@H]2[C@@H]3CCC4=CC(=O)CC[C@]4(C)[C@H]3CC[C@]12C [progesterone, pregn-4-ene-3,20-dione]",enlargement of the lateral ventricles,[1]; 3 or 5 days,did not have any effect on this measure
same,mean striatal area,[1]; 3 or 5 days,No between-group differences
same,necrotic cavity size,"[1]; 3 days (LP3), vs injured animals",tended to be smaller than in the brains of injured animals
same,necrotic cavity formation,"[1]; 5 days (LP5), vs vehicle-injected injured animals",significant reductions in overall necrotic cavity formation
same,"anxiety, locomotor and sensory deficits","[2]; injured (AWI) vs tapered withdrawal, injured (TWI)","increase anxiety, locomotor and sensory deficits compared to tapered progesterone withdrawal"
same,behavioral impairments one week after peak of withdrawal,"[2]; injured (AWI), one week later",increased behavioral impairments are still evident in AWI animals
same,motor impairments,[2]; shams (AWS) vs other shams,increased motor impairments compared to all other shams
same,anxiety,[2]; shams (AWS) vs tapered progesterone rats,increased anxiety compared to tapered progesterone rats
same,lesion volume,[3],smallest lesion volume
same,center time,"[4]; acute withdrawal, lesion (AWL), one and seven days post-withdrawal",increased center time compared to VL animals
same,center time,"[4]; acute withdrawal, sham (AWS), one day post-withdrawal",significantly less center time compared to other shams
same,center time,"[4]; sham groups (AWS, TWS, VS), seven days post-withdrawal",all sham animals spent equivalent center time
same,center time,"[4]; tapered withdrawal, lesion (TWL), one and seven days post-withdrawal",increased center time over AWL animals
same,center time,"[4]; tapered withdrawal, sham (TWS), one day post-withdrawal",increased center time at one day compared to VS animals
